The values below come from paper PMC6934184, “Selective DNA-PKcs inhibition extends the therapeutic index of localized radiotherapy and chemotherapy” (The Journal of Clinical Investigation, 2019).

The target of this assay is T1, ABL1 Q252H (Homo sapiens, UniProt P00519, Q252H).
T1 construct: purchased Thermo Fisher Scientific (Life Technologies) SelectScreen
The assay is described as follows: SelectScreen LanthaScreen. Type of assay: binding. The note with it: read-out: % displacement. The gist of the method: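 NU5455 was profiled across the SelectScreen Broad panel of kinase activity and binding assays. Z'LYTE reactions such as CSF1R ran at apparent Km ATP, while the Adapta CAMK1 assay used ATP listed as 10. Values are given as percent.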

Structures are written as SMILES.

As to `CN(C(=O)CN1CCOCC1)c1ccc2sc3c(-c4cccc5c(=O)cc(N6CC7CCC(C6)O7)oc45)cccc3c2c1` [NU5455], the inhibition at 1 µM was 1.1%.
